Experimental data as given in patent publication US11111251B2, “Positive allosteric modulators of the muscarinic acetylcholine receptor M1” (Vanderbilt University, priority 2016, dated 2021).

Molecular target: T1, human mAChR M1 (Homo sapiens, UniProt P11229)
T1 sequence (P11229 1-460): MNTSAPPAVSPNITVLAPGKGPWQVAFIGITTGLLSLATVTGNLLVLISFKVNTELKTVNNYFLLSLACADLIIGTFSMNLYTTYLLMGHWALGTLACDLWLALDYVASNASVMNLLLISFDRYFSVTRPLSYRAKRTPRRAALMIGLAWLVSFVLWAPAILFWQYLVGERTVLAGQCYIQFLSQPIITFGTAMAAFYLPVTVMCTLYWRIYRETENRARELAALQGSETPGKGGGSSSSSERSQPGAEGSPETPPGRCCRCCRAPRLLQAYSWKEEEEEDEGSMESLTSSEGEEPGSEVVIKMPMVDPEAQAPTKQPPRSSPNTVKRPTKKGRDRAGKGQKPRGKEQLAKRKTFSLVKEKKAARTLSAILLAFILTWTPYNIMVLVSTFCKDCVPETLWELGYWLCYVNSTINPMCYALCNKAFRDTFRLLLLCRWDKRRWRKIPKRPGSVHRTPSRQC
Test: mAChR M1 cell-based functional assay: calcium mobilization, positive allosteric modulator mode (increase in EC20 acetylcholine response)
Conditions: Table 2, human M1; for EC50: read-out: Human M1 EC50; for Emax: read-out: Human M1 Emax (%)
Method in brief: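 Calcium-flux assay in CHO-K1 cells stably expressing human M1, loaded with Fluo-4 AM (50 min, 37 °C) and read at 1 Hz. Compound (11-point, 1:3 series) was added at 4 s, EC20 acetylcholine at 144 s and EC80 at 230 s. PAM activity is the concentration-dependent rise in the EC20 response, fitted with a four-parameter logistic.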

Question: What does the source list for Cc1ncc(Cc2cc(C(=O)NC34CC5CC(CC(O)(C5)C3)C4)nc3ccsc23)s1 [Compound 141, N-(3-hydroxy-1-adamantyl)-7-[(2-methylthiazol-5-yl]methyl]thieno[3,2-b]pyridine-5-carboxamide]?
Answer: EC50: > 10000 nM; Emax: 36.9%

Question: Which results are given for Cc1ncc(Cc2cc(C(=O)NC3C4CC5CC3CC(O)(C5)C4)nc3ccsc23)s1 [Compound 142, N-(1S)-5-hydroxy-2-adamantyl]-7-[(2-methylthiazol-5-yl)methyl]thieno[3,2-b]pyridine-5-carboxamide]?
Answer: EC50: 4950 nM; Emax: 23.9%

Question: Which EC50 does the source give for Cc1ncc(Cc2cc(C(=O)NC3CCCNC3=O)nc3ccsc23)s1 (stereo not shown) [Compound 143, 7-[(2-methylthiazol-5-yl)methyl]-N-(2-oxo-3-piperidyl)thieno[3,2-b]pyridine-5-carboxamide] here?
Answer: Its EC50 is greater than 10000 nM.

Question: And the Emax?
Answer: The Emax was 50.5%.

Question: How did the EC50 turn out when Cc1ncc(Cc2cc(C(=O)NC3CCCCNC3=O)nc3ccsc23)s1 (stereo not shown) [Compound 144, 7-[(2-methylthiazol-5-yl)methyl]-N-(2-oxoazepan-3-yl)thieno[3,2-b]pyridine-5-carboxamide] was run?
Answer: The EC50 was greater than 10000 nM.

Question: And the Emax?
Answer: Its Emax is 50.7%.

Question: With Cc1ccc(C(=O)c2cc(C(=O)N[C@@H]3CCCC[C@H]3O)nc3ccsc23)cn1 [Compound 145, N-[(1R,2R)-2-hydroxycyclohexyl]-7-(6-methylpyridine-3-carbonyl)thieno[3,2-b]pyridine-5-carboxamide] as the compound, how does the EC50 read?
Answer: Its EC50 is greater than 10000 nM.

Question: And the Emax?
Answer: Its Emax is 41.6%.

Question: Which EC50 does the source give for Cc1nc(-c2ccc(Cc3cc(C(=O)N[C@H]4CC[C@@H]4O)nc4ccsc34)cc2)co1 [Compound 146, N-[(1S,2S)-2-hydroxycyclobutyl]-7-[[4-(2-methyloxazol-4-yl)phenyl]methyl]thieno[3,2-b]pyridine-5-carboxamide] here?
Answer: The EC50 was 336 nM.

Question: And the Emax?
Answer: The Emax was 90.7%.

Question: With Cc1nc(-c2ccc(Cc3cc(C(=O)NC4COC4)nc4ccsc34)cc2)co1 [Compound 147, 7-[[4-(2-methyloxazol-4-yl)phenyl]methyl]-N-(oxetan-3-yl)thieno[3,2-b]pyridine-5-carboxamide] as the compound, how does the EC50 read?
Answer: The EC50 was greater than 10000 nM.

Question: And the Emax?
Answer: Its Emax is 34%.

Question: Which EC50 does the source give for Cn1cc(-c2ccc(Cc3cc(C(=O)N[C@H]4CC[C@@H]4O)nc4ccsc34)cc2)nn1 [Compound 148, N-[(1S,2S)-2-hydroxycyclobutyl]-7-[[4-(1-methyltriazol-4-yl)phenyl]methyl]thieno[3,2-b]pyridine-5-carboxamide] here?
Answer: The EC50 was 33.1 nM.

Question: What about the Emax of the same compound?
Answer: The Emax was 85.5%.

Question: With Cn1cc(-c2ccc(Cc3cc(C(=O)N[C@@H]4CCC[C@H]4O)nc4ccsc34)cc2)nn1 [Compound 149, N-[(1R,2R)-2-hydroxycyclopentyl]-7-[[4-(1-methyltriazol-4-yl)phenyl]methyl]thieno[3,2-b]pyridine-5-carboxamide] as the compound, how does the EC50 read?
Answer: The EC50 was 9.84 nM.

Question: What about the Emax of the same compound?
Answer: The Emax was 85%.

Question: For Cn1cc(-c2ccc(Cc3cc(C(=O)N[C@@H]4CCOC4)nc4ccsc34)cc2)nn1 [Compound 150, 7-[[4-(1-methyltriazol-4-yl)phenyl]methyl]-N-[(3R)-tetrahydrofuran-3-yl]thieno[3,2-b]pyridine-5-carboxamide], which EC50 is on record?
Answer: The EC50 was 722 nM.

Question: What about the Emax of the same compound?
Answer: The Emax was 88.5%.

Question: Which EC50 does the source give for Cn1cc(-c2ccc(Cc3cc(C(=O)N[C@H]4CCOC4)nc4ccsc34)cc2)nn1 [Compound 151, 7-[[4-(1-methyltriazol-4-yl)phenyl]methyl]-N-[(3S)-tetrahydrofuran-3-yl]thieno[3,2-b]pyridine-5-carboxamide] here?
Answer: Its EC50 is 595 nM.

Question: And the Emax?
Answer: The Emax was 88.4%.

Question: How did the EC50 turn out when Cn1cc(-c2ccc(Cc3cc(C(=O)NC4CCCOC4)nc4ccsc34)cc2)nn1 (stereo not shown) [Compound 152, 7-[[4-(1-methyltriazol-4-yl)phenyl]methyl]-N-tetrahydropyran-3-yl-thieno[3,2-b]pyridine-5-carboxamide] was run?
Answer: The EC50 was 272 nM.

Question: What about the Emax of the same compound?
Answer: The Emax was 92.3%.

Question: Cn1cc(-c2ccc(Cc3cc(C(=O)N[C@@H]4CCOC[C@H]4O)nc4ccsc34)cc2)nn1 [Compound 153, N-[(3S,4R)-3-hydroxytetrahydropyran-4-yl]-7-[[4-(1-methyltriazol-4-yl)phenyl]methyl]thieno[3,2-b]pyridine-5-carboxamide] was tested. Which EC50 did it give?
Answer: The EC50 was 4.74 nM.

Question: What about the Emax of the same compound?
Answer: Its Emax is 59.8%.

Question: Cn1cc(-c2ccc(Cc3cc(C(=O)N[C@@H]4COCC[C@H]4O)nc4ccsc34)cc2)nn1 [Compound 154, N-[(3R,4R)-4-hydroxytetrahydropyran-3-yl]-7-[[4-(1-methyltriazol-4-yl)phenyl]methyl]thieno[3,2-b]pyridine-5-carboxamide] was tested. Which EC50 did it give?
Answer: Its EC50 is 6.2 nM.

Question: What about the Emax of the same compound?
Answer: The Emax was 83.9%.

Question: Which EC50 does the source give for Cn1cc(-c2ccc(Cc3cc(C(=O)N[C@@H]4CCCC[C@H]4O)nc4ccsc34)cc2)nn1 [Compound 155, N-[(1R,2R)-2-hydroxycyclohexyl]-7-[[4-(1-methyltriazol-4-yl)phenyl]methyl]thieno[3,2-b]pyridine-5-carboxamide] here?
Answer: The EC50 was 12.7 nM.

Question: What about the Emax of the same compound?
Answer: The Emax was 68.7%.

Question: How did the EC50 turn out when CO[C@@H]1CCCC[C@H]1NC(=O)c1cc(Cc2ccc(-c3cn(C)nn3)cc2)c2sccc2n1 [Compound 156, N-[(1R,2R)-2-methoxycyclohexyl]-7-[[4-(1-methyltriazol-4-yl)phenyl]methyl]thieno[3,2-b]pyridine-5-carboxamide] was run?
Answer: The EC50 was 260 nM.

Question: And the Emax?
Answer: Its Emax is 89.2%.

Question: For Cn1cc(-c2ccc(Cc3cc(C(=O)N[C@@H]4CCCCC[C@H]4O)nc4ccsc34)cc2)nn1 [Compound 157, N-[(1R,2R)-2-hydroxycycloheptyl]-7-[[4-(1-methyltriazol-4-yl)phenyl]methyl]thieno[3,2-b]pyridine-5-carboxamide], which EC50 is on record?
Answer: The EC50 was 24.2 nM.

Question: What about the Emax of the same compound?
Answer: The Emax was 70%.

Question: Cc1nc(-c2ccc(Cc3cc(C(=O)NC4CC5(COC5)C4)nc4ccsc34)cc2)co1 [Compound 158, 7-[[4-(2-methyloxazol-4-yl)phenyl]methyl]-N-(2-oxaspiro[3.3]heptan-6-yl)thieno[3,2-b]pyridine-5-carboxamide] was tested. Which EC50 did it give?
Answer: Its EC50 is 343 nM.

Question: And the Emax?
Answer: The Emax was 89.7%.

Question: What does the source list for Cc1nc(-c2ccc(Cc3cc(C(=O)N[C@@H]4CCC[C@H]4O)nc4ccsc34)cc2)co1 [Compound 159, N-[(1R,2R)-2-hydroxycyclopentyl]-7-[[4-(2-methyloxazol-4-yl)phenyl]methyl]thieno[3,2-b]pyridine-5-carboxamide]?
Answer: EC50: 141 nM; Emax: 80.5%

Question: Which EC50 does the source give for Cc1nc(-c2ccc(Cc3cc(C(=O)N[C@@H]4CCOC4)nc4ccsc34)cc2)co1 [Compound 160, 7-[[4-(2-methyloxazol-4-yl)phenyl]methyl]-N-[(3R)-tetrahydrofuran-3-yl]thieno[3,2-b]pyridine-5-carboxamide] here?
Answer: Its EC50 is 3930 nM.

Question: What about the Emax of the same compound?
Answer: Its Emax is 77.5%.

Question: How did the EC50 turn out when Cc1nc(-c2ccc(Cc3cc(C(=O)N[C@H]4CCOC4)nc4ccsc34)cc2)co1 [Compound 161, 7-[[4-(2-methyloxazol-4-yl)phenyl]methyl]-N-[(3S)-tetrahydrofuran-3-yl]thieno[3,2-b]pyridine-5-carboxamide] was run?
Answer: Its EC50 is 3510 nM.

Question: And the Emax?
Answer: The Emax was 78.8%.

Question: What does the source list for Cc1nc(-c2ccc(Cc3cc(C(=O)NC4CCCCC4)nc4ccsc34)cc2)co1 [Compound 162, N-cyclohexyl-7-[[4-(2-methyloxazol-4-yl)phenyl]methyl]thieno[3,2-b]pyridine-5-carboxamide]?
Answer: EC50: 5040 nM; Emax: 74%

Question: For Cc1nc(-c2ccc(Cc3cc(C(=O)NC4CCCN(C)C4)nc4ccsc34)cc2)co1 (stereo not shown) [Compound 163, 7-[[4-(2-methyloxazol-4-yl)phenyl]methyl]-N-(1-methyl-3-piperidyl)thieno[3,2-b]pyridine-5-carboxamide], which EC50 is on record?
Answer: The EC50 was 2530 nM.

Question: What about the Emax of the same compound?
Answer: The Emax was 75.4%.

Question: Cc1nc(-c2ccc(Cc3cc(C(=O)NC4CCN(C)CC4)nc4ccsc34)cc2)co1 [Compound 164, 7-[[4-(2-methyloxazol-4-yl)phenyl]methyl]-N-(1-methyl-4-piperidyl)thieno[3,2-b]pyridine-5-carboxamide] was tested. Which EC50 did it give?
Answer: Its EC50 is 2550 nM.

Question: What about the Emax of the same compound?
Answer: The Emax was 74.6%.

Question: With Cc1nc(-c2ccc(Cc3cc(C(=O)N(C)C4CCOCC4)nc4ccsc34)cc2)co1 [Compound 165, N-methyl-7-[[4-(2-methyloxazol-4-yl)phenyl]methyl]-N-tetrahydropyran-4-yl-thieno[3,2-b]pyridine-5-carboxamide] as the compound, how does the EC50 read?
Answer: Its EC50 is greater than 10000 nM.

Question: What about the Emax of the same compound?
Answer: Its Emax is 70.8%.

Question: Which EC50 does the source give for Cc1nc(-c2ccc(Cc3cc(C(=O)N[C@@H]4CCOC[C@H]4O)nc4ccsc34)cc2)co1 [Compound 166, N-[(3S,4R)-3-hydroxytetrahydropyran-4-yl]-7-[[4-(2-methyloxazol-4-yl)phenyl]methyl]thieno[3,2-b]pyridine-5-carboxamide] here?
Answer: Its EC50 is 16.8 nM.

Question: And the Emax?
Answer: Its Emax is 81.6%.

Question: With Cc1nc(-c2ccc(Cc3cc(C(=O)N[C@@H]4COCC[C@H]4O)nc4ccsc34)cc2)co1 [Compound 167, N-[(3R,4R)-4-hydroxytetrahydropyran-3-yl]-7-[[4-(2-methyloxazol-4-yl)phenyl]methyl]thieno[3,2-b]pyridine-5-carboxamide] as the compound, how does the EC50 read?
Answer: Its EC50 is 25.3 nM.

Question: And the Emax?
Answer: Its Emax is 90.4%.

Question: Cc1nc(-c2ccc(Cc3cc(C(=O)N[C@@H]4CCCC[C@H]4O)nc4ccsc34)cc2)co1 [Compound 168, N-[(1R,2R)-2-hydroxycyclohexyl]-7-[[4-(2-methyloxazol-4-yl)phenyl]methyl]thieno[3,2-b]pyridine-5-carboxamide] was tested. Which EC50 did it give?
Answer: Its EC50 is 84.2 nM.

Question: What about the Emax of the same compound?
Answer: Its Emax is 82.6%.

Question: For CO[C@@H]1CCCC[C@H]1NC(=O)c1cc(Cc2ccc(-c3coc(C)n3)cc2)c2sccc2n1 [Compound 169, N-[(1R,2R)-2-methoxycyclohexyl]-7-[[4-(2-methyloxazol-4-yl)phenyl]methyl]thieno[3,2-b]pyridine-5-carboxamide], which EC50 is on record?
Answer: The EC50 was 1360 nM.

Question: What about the Emax of the same compound?
Answer: The Emax was 84.1%.
